Converted amounts (≈) assume the structure as drawn.
Columns and labels:
Assay type in all cases: physicochemical
[1] = Solid form characterization summary (hygroscopicity comment); conditions: comment on solid form
Excerpt: A summary of the characterization data for the solid forms of Compound 1 identified is shown below in Table 15.

[2] = Water activity studies in IPA/water
Method: Water activity studies of Form I, II and V were also performed in IPA/water with different water content at RT and 50° C.

[3] = Preliminary solubility in 14 solvents by solvent addition with visual assessment; conditions: thermodynamic from solid, RT
Excerpt: Preliminary solubility of Compound 1 (Form V) was estimated in 14 selected solvents at RT using solvent addition method via visual assessment of samples.

[4] = Solid stability of Form II
Method: (§1) HPLC analysis was performed with an Agilent HPLC 1260 series instrument.
The solid stability of Form II was evaluated at 60° C. for 7 days, 40° C./75% RH for 6 days, and RT/92.5% RH for 2 days, respectively. […] The purity of Compound 1 decreased by about 0.3% at 60° C. for 3 days and 7 days, mainly due to the increase of the impurities at RRT 0.9, 0.91 and 1.07.

[5] = Solubility testing of Form II in SGF, water, FaSSIF and FeSSIF; conditions: for solubility: thermodynamic from solid
Method: Nine crystal forms were identified, assigned as Form I-IX, including a mono-hydrate (Form I) four anhydrates (Form II, III, V and IX), a hemihydrate, (Form IV) and three solvates (Form VI, VII and VIII). […] The three solvates (Form VI, VII, and VIII) converted to Form II after desolvation and recrystallization during heating by DSC. Form II was evaluated by DVS, solubility and stability testing. […] The purity decreased by about 0.3% at 60° C. for 3 days and 7 days, mainly due to the increase of impurities at RRT 0.9, 0.91 and 1.07.
as §1

[6] = Competitive slurry inter-conversion studies; conditions: competitive slurries in non-aqueous solvents, RT and 50° C.
Method: Competitive slurries of Form I, II and V were performed in IPAC at RT and 50° C. […] A competitive slurry of Form III and Form II was conducted in IPA and IPAC at RT and 50° C., respectively, and all mixtures converted to Form II after 1 day. A competitive slurry of Form II and IX was also performed in IPA and IPAC at RT and 50° C. […] In IPA at RT and IPA and EA at RT and 50° C., all mixtures tended to convert to Form II.

[7] = Dynamic Vapor Sorption (DVS)
Method: Moisture sorption/desorption data was collected on a DVS Intrinsic PLUS (SMS, UK). The sample was placed into a tared sample chamber and automatically weighed. The sample was dried at 40° C./0% RH until the dm/dt was less than 0.002% and cooled to 25° C.

Structure (SMILES): C=CC(=O)N1C[C@@H](n2nc(C#Cc3c(F)cc4c(ncn4C4CC4)c3F)c(C(N)=O)c2NC)C[C@@H]1COC [Form III, 1-((3S,5R)-1-acryloyl-5-(methoxymethyl)pyrrolidin-3-yl)-3-((1-cyclopropyl-4,6-difluoro-1H-benzo[d]imidazol-5-yl)ethynyl)-5-(methylamino)-1H-pyrazole-4-carboxamide]
- Hygroscopicity [1]: Hygroscopic

Structure (SMILES): C=CC(=O)N1C[C@@H](n2nc(C#Cc3c(F)cc4c(ncn4C4CC4)c3F)c(C(N)=O)c2NC)C[C@@H]1COC [Form I, 1-((3S,5R)-1-acryloyl-5-(methoxymethyl)pyrrolidin-3-yl)-3-((1-cyclopropyl-4,6-difluoro-1H-benzo[d]imidazol-5-yl)ethynyl)-5-(methylamino)-1H-pyrazole-4-carboxamide]
- Water activity (aw) at which Form I is more stable than Form II ([2]; 50° C.): ≥ 0.75
- Water activity (aw) at which Form I is more stable than Form II ([2]; RT): ≥ 0.55

Structure (SMILES): C=CC(=O)N1C[C@@H](n2nc(C#Cc3c(F)cc4c(ncn4C4CC4)c3F)c(C(N)=O)c2NC)C[C@@H]1COC [Compound 1, 1-((3S,5R)-1-acryloyl-5-(methoxymethyl)pyrrolidin-3-yl)-3-((1-cyclopropyl-4,6-difluoro-1H-benzo[d]imidazol-5-yl)ethynyl)-5-(methylamino)-1H-pyrazole-4-carboxamide]
- solubility ([3]; organic solvent or mixture, ACN, Form V material, read-out: Solubility): 27 to 36 mg/mL (≈ 51.6 to 68.8 mM)
- solubility ([3]; organic solvent or mixture, Acetone, Form V material, read-out: Solubility): ~34 mg/mL (≈ 64.9 mM)
- solubility ([3]; organic solvent or mixture, EA, Form V material, read-out: Solubility): ~8 mg/mL (≈ 15.3 mM)
- solubility ([3]; organic solvent or mixture, EtOH, Form V material, read-out: Solubility): ~21 mg/mL (≈ 40.1 mM)
- solubility ([3]; organic solvent or mixture, IPA, Form V material, read-out: Solubility): ~5 mg/mL (≈ 9.55 mM)
- solubility ([3]; organic solvent or mixture, IPAC, Form V material, read-out: Solubility): ~4 mg/mL (≈ 7.64 mM)
- solubility ([3]; organic solvent or mixture, Isobutanol, Form V material, read-out: Solubility): ~6 mg/mL (≈ 11.5 mM)
- solubility ([3]; organic solvent or mixture, MEK, Form V material, read-out: Solubility): ~31 mg/mL (≈ 59.2 mM)
- solubility ([3]; organic solvent or mixture, MTBE, Form V material, read-out: Solubility): < 0.75 mg/mL
- solubility ([3]; organic solvent or mixture, MeOH, Form V material, read-out: Solubility): > 106 mg/mL
- solubility ([3]; organic solvent or mixture, THF, Form V material, read-out: Solubility): > 100 mg/mL
- solubility ([3]; organic solvent or mixture, Toluene, Form V material, read-out: Solubility): < 1 mg/mL
- solubility ([3]; organic solvent or mixture, n-Heptane, Form V material, read-out: Solubility): < 1 mg/mL
- solubility ([3]; Water, Form V material, read-out: Solubility): < 1 mg/mL

Structure (SMILES): C=CC(=O)N1C[C@@H](n2nc(C#Cc3c(F)cc4c(ncn4C4CC4)c3F)c(C(N)=O)c2NC)C[C@@H]1COC [Form II, 1-((3S,5R)-1-acryloyl-5-(methoxymethyl)pyrrolidin-3-yl)-3-((1-cyclopropyl-4,6-difluoro-1H-benzo[d]imidazol-5-yl)ethynyl)-5-(methylamino)-1H-pyrazole-4-carboxamide]
- Solid stability ([4]; 40° C./75% RH for 6 days): physically and chemically stable
- Purity decrease ([4]; 60° C. for 3 days and 7 days): about 0.3%
- Solid stability ([4]; RT/92.5% RH for 2 days): physically stable
- solubility ([5]; SGF, simulated gastric fluid): 0.8 mg/mL (≈ 1.53 mM)
- Solubility in FeSSIF relative to FaSSIF ([5]; at 24 h): about thirty times higher
- solubility ([5]; water): ~0.003 mg/mL (≈ 0.00573 mM)
- Relative stability of forms [6]: most stable form in non-aqueous solvents
- Hygroscopicity ([7]; DVS): slightly hygroscopic
- Crystal form after DVS testing ([7]; after DVS testing): remained unchanged
- Water activity (aw) at which the form is physically stable ([2]; 50° C.): ≤ 0.55
- Water activity (aw) at which the form is physically stable ([2]; RT): ≤ 0.35

Structure (SMILES): C=CC(=O)N1C[C@@H](n2nc(C#Cc3c(F)cc4c(ncn4C4CC4)c3F)c(C(N)=O)c2NC)C[C@@H]1COC [Form V, 1-((3S,5R)-1-acryloyl-5-(methoxymethyl)pyrrolidin-3-yl)-3-((1-cyclopropyl-4,6-difluoro-1H-benzo[d]imidazol-5-yl)ethynyl)-5-(methylamino)-1H-pyrazole-4-carboxamide]
- solubility ([3]; organic solvent or mixture, MeOH, THF, acetone, MEK and ACN, read-out: Solubility (relatively high)): > 20 mg/mL
- solubility ([3]; non-polar solvents and water, read-out: Solubility (practically insoluble)): < 1 mg/mL

— patent US20250059170A1, “SOLID STATE FORMS OF AN FGFR INHIBITOR” (Kinnate Biopharma Inc., priority 2021, published 2025)
